The values below come from patent US20080010691A1, “Method of Screening Therapeutic Agent for Irritable Bowel Syndrome” (priority 2005, published 2008).

The structures appear in SMILES notation. Counter-ions that a name gives are not always drawn. Marks after values point to notes of the source that are not given here.

Experiment [1] has as its system conditioned fear stressed animal model (freezing behavior). The experiment in a line: CFS-induced freezing behavior. It counts as in vivo, rat. The note with it: oral; for influence upon CFS-induced freezing behavior: 30 minutes observation after CFS loading, all of the doses tested. An excerpt:
(§1) Male Sprague-Dawley rats (6 weeks of age, CLEA Japan) were used. The rats which passed 1 week or more after their receipt were divided into groups of 12 animals per group in such a manner that their average values and standard deviations of body weight became almost the same. The electric shock conditions were set in accordance with the results of preliminary examinations. That is, the rats were put into an electric shock device (17×17×39 cm, CB 2000 type, O'Hara) having an electrode set in the floor, and after 3 seconds of warning sound, their conditioning was carried out by applying an electric current of 2 mA at the maximum for 5 seconds per once per minute, a total of 15 times, and irradiating light at the time of the electric shock using 3 electric bulbs of 40 w. The control group was put into the electric shock device by the same protocol, but without applying the electric shock. From 18 to 24 hours thereafter, each drug to be tested was orally administered to each animal by force at a dose of 5 mL/kg, they were again put into the electric shock device 1 hour thereafter, and then a conditioned fear stress (CFS) loading was carried out by applying 3 seconds of warning sound and subsequent 5 seconds of light irradiation for 30 minutes.
Regarding the measurement of freezing behavior (freezing), a case of not moving at all during 30 seconds other than the movement accompanied by breathing was evaluated as the freezing behavior. The evaluation times were set to 0, 1, 3, 5, 7, 9, 12, 13, 14, 17, 18, 19, 22, 23, 24, 27, 28 and 29 minutes after the CFS loading, and the measurement was carried out at intervals of 30 seconds per minute. The ratio (%) of showing the freezing behavior by each animal was calculated in 3 plots of from 0 to 9 minutes (Block 1), from 10 to 19 minutes (Block 2) and from 20 to 29 minutes (Block 3) after the loading.

Experiment [2] has as its system conditioned fear stressed animal model (proximal large intestine transport). Nature of the experiment: Proximal large intestine transport ability by marker method after CFS loading. It counts as in vivo, rat. The following applies: 30 minutes after CFS loading. The procedure: (§2) Male Sprague-Dawley rats (6 to 7 weeks of age, CLEA Japan) were used. The rats which passed about 1 week after their receipt were used in the test. The electric shock conditions were set in accordance with Example 1. That is, the rats were put into an electric shock device (17×17×39 cm, CB 2000 type, O'Hara) having an electrode set in the floor, and after 3 seconds of warning sound, their conditioning was carried out by applying an electric current of 2.5 mA for 5 seconds per minute per once, a total of 15 times, and irradiating light at the time of the electric shock using 3 electric bulbs of 40 w. The normal group was put into the electric shock device by the same protocol, but without applying the electric shock. From 20 to 24 hours thereafter, each drug to be tested was orally administered to each animal by force at a dose of 5 mL/kg, they were again put into the electric shock device 1 hour thereafter, and then a conditioned fear stress (CFS) loading was carried out by applying 3 seconds of warning sound and subsequent 5 seconds of light irradiation for 30 minutes.
Measurement of proximal large intestine transport ability by a marker method was carried out by modifying the method of Kadowaki et al. (Journal of Pharmacology and Experimental Therapeutics, 1993, vol. 266, p. 74-80). That is, abdominal part of each rat was subjected to median incision (about 1 cm) under pentobarbital (50 mg/kg ip) anesthesia, and the ileocecal junction was extracted. A large intestinal part of about 1 cm from the connecting part was extracted from the neck by inserting canula (SP 50). The animals were individually reared for 5 days until the test, under conditions of free ingestion and free drinking. A Carmine Red solution (0.2 mL of 0.5% methyl cellulose solution containing 3 g of Carmine Red and 5 g of acacia) was injected trough the canula, CFS was loaded for 30 minutes by the aforementioned method, and then the animals were sacrificed by a decapitation device. By quickly carrying out median incision, large intestine starting part-anus part was extracted, and the whole length and marker shifting distance were measured using the canula insertion part as the starting point. The large intestine transport ability (%) was calculated as (marker shifting distance)÷(whole length)×100.

For experiment [3], the system named is conditioned fear stressed animal model (distal large intestine transport). The experiment in a line: Distal large intestine transport ability by beads discharge method after CFS loading. It counts as in vivo, rat. The note with it: control group 13.70, normal group 0.38. The procedure: as §2, with “test by 12 animals per group.” for “test.”
Measurement of large intestine transport ability by a beads discharge method was carried out by modifying the method of Negri et al. (British Journal of Pharmacology, 1999, no. 128, p. 1554-60). That is, under light ether anesthesia, silicon beads (3 mm in diameter) were inserted in a length of 3 cm into the rectum side from the anus part using a silicon rod. After waking, the silicon rod was immediately removed to carry out CFS loading. The CFS loading starting time and silicon beads discharging time were recorded, and the measurement finishing time was set to 90 minutes in CFS group and 8 hours in normal group after the starting of the measurement. The distal large intestine transport ability (mm/min) was calculated as 30 mm÷required beads discharge time (min).

Experiment [4] concerns conditioned fear stressed animal model (abnormal evacuation). Nature of the experiment: Conditioned fear stress (CFS)-induced abnormal evacuation, wet feces weight. It counts as in vivo, rat. The note with it: oral administration 1 hour before CFS loading; 30 minutes CFS; linear regression, n=12.
Description: as §1
The number of evacuations was recorded after 2, 4, 6, 8, 10, 15, 20, 25 and 30 minutes of the commencement of the CFS loading, and wet weights of feces were measured by recovering the feces at the time of the completion of the measurement. In addition, the feces were dried at 70° C. for 22 hours and then their dry weights were measured to calculate the moisture content. In this connection, the evacuations just after putting them into the measuring device were excluded from the measured values of the number of evacuations and feces weights.

Experiment [5] deals with conditioned fear stressed animal model. The following applies: cited from earlier work; for freezing behavior: reported in the literature (Non-patent References 4-7).

With `CN(C)C(=O)C(CCN1CCC(O)(c2ccc(Cl)cc2)CC1)(c1ccccc1)c1ccccc1` [Loperamide hydrochloride, loperamide hydrochloride], in experiment [1] (action significant at a dose of 30 mg/kg), the “freezing behavior-expressing time of 20 to 29 minutes after CFS loading (Block 3)” value was “dose-dependently prolonged”. Further, in experiment [2] (10 mg/kg oral), the “proximal large intestine transport rate increased by the CFS loading” value is “lowered”. For the same molecule, the “Distal large intestine transport ability” value in experiment [3] (dose 10 mg/kg oral) is reported as 3.64** mm/min. Moreover, the “ED50 value of the controlling ratio of wet feces weights increased by CFS loading” value in experiment [4] turned out to be 9.000 mg/kg.
For `CNCCC(Oc1ccc(C(F)(F)F)cc1)c1ccccc1` (centres unmarked) [fluoxetine], the freezing behavior entry in experiment [5] is given as “suppressed”. Further, the bowel movement entry in experiment [5] (reported in the literature (Non-patent References 5-7)) was “suppressed”.
For `Cc1[nH]cnc1CN1CCc2c(c3ccccc3n2C)C1=O` [Alosetron hydrochloride, alosetron hydrochloride], the “influence upon CFS-induced freezing behavior” value in experiment [1] is reported as “did not exert influence”. The “proximal large intestine transport rate increased by the CFS loading” value in experiment [2] (0.3 mg/kg oral) is recorded as “lowered”. Moreover, the “Distal large intestine transport ability” value in experiment [3] (dose 0.3 mg/kg oral) is on record as 5.04* mm/min. For the same molecule, in experiment [4], the “ED50 value of the controlling ratio of wet feces weights increased by CFS loading” value is given as 0.078 mg/kg.
On to `Cn1cc(C(=O)[C@@H]2CCc3nc[nH]c3C2)c2ccccc21` [Ramosetron hydrochloride, ramosetron hydrochloride], for which, in experiment [1], the “influence upon CFS-induced freezing behavior” value is reported as “did not exert influence”. In addition, the “proximal large intestine transport rate increased by the CFS loading” value in experiment [2] (0.1 mg/kg oral) was “lowered”. Moreover, in experiment [3] (dose 0.1 mg/kg oral), the “Distal large intestine transport ability” value was 4.93** mm/min. Further, the “ED50 value of the controlling ratio of wet feces weights increased by CFS loading” value in experiment [4] is on record as 0.012 mg/kg.
For the molecule `Cc1nccn1C[C@H]1CCc2c(c3cccc4c3n2CCC4)C1=O` [Cilansetron hydrochloride, cilansetron hydrochloride], the “influence upon CFS-induced freezing behavior” value in experiment [1] was “did not exert influence”. Moreover, the “proximal large intestine transport rate increased by the CFS loading” value in experiment [2] (0.3 mg/kg oral) is recorded as “lowered”. In experiment [3] (dose 0.3 mg/kg oral), the “Distal large intestine transport ability” value is recorded as 5.06** mm/min. Also, the “ED50 value of the controlling ratio of wet feces weights increased by CFS loading” value in experiment [4] is 0.094 mg/kg.
Consider `Cc1ncc2n1-c1ccc(Cl)cc1C(c1ccccc1F)=NC2` [midazolam], for which the freezing behavior entry in experiment [5] is listed as “suppressed”.
On to `CN1C(=O)CN=C(c2ccccc2)c2cc(Cl)ccc21` [diazepam], for which, in experiment [5], the freezing behavior entry is “suppressed”.
